The text below walks through data of patent US6995263B2, “Indolyl and dihydroindolyl derivatives, their manufacture and use as pharmaceutical agents” (Hoffmann-La Roche Inc., priority 2003, dated 2006).

pIC50: −log10 of the molar value. Where only a bound is given, the exact number is not on record here.

What is called pIC50 is −log10 of the IC50, conventionally taken in molar units.

For one experiment, the target named is T1, PPARα (Homo sapiens, UniProt Q07869).
T1 construct: PPARα (aa 167 to 469); made in house; host or cells: E. coli BL21(pLysS)
T1 sequence (Q07869 167-468 limits assumed): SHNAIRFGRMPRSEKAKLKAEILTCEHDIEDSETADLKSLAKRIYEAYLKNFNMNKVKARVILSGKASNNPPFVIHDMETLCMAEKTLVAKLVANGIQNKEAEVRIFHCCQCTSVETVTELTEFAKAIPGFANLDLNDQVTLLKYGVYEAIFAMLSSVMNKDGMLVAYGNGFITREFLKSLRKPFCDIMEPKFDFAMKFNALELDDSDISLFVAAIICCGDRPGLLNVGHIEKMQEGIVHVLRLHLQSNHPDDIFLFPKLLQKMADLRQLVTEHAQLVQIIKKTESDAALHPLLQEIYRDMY
Kind of experiment: Radioligand binding assay (SPA), PPARα receptor binding. Particulars: GST-PPARα-LBD fusion protein, scintillation proximity counting. The text has this: (§1) Background information on the performed assays can be found in: Nichols J S et al. “Development of a scintillation proximity assay for peroxisome proliferator-activated receptor gamma ligand binding domain”, (1998) Anal. Biochem. 257:112–119.
(§2) Full-length cDNA clones for humans PPARδ and PPARα and mouse PPARγ were obtained by RT-PCR from human adipose and mouse liver cRNA, respectively, cloned into plasmid vectors and verified by DNA sequencing. Bacterial and mammalian expression vectors were constructed to produce glutathione-s-transferase (GST) and Gal4 DNA binding domain proteins fused to the ligand binding domains (LBD) of PPARδ (aa 139 to 442), PPARγ (aa 174 to 476) and PPARα (aa 167 to 469). To accomplish this, the portions of the cloned sequences encoding the LBDs were amplified from the full-length clones by PCR and then subcloned into the plasmid vectors. Final clones were verified by DNA sequence analysis.
(§3) Induction, expression, and purification of GST-LBD fusion proteins were performed in E. coli strain BL21(pLysS) cells by standard methods (Ref: Current Protocols in Molecular Biology, Wiley Press, edited by Ausubel et al.).
(§4) PPARα receptor binding was assayed in TKE50 (50 mM Tris-HCl, pH 8, 50 mM KCl, 2 mM EDTA, 0.1 mg/ml fatty acid-free BSA and 10 mM DTT). For each 96 well reaction an 140 ng equivalent of GST-PPARα-LBD fusion protein was bound to 10 μg SPA beads (PharmaciaAmersham) in a final volume of 50 μl by shaking. The resulting slurry was incubated for 1 h at RT and centrifuged for 2 min at 1300 g. The supernatant containing unbound protein was removed and the semidry pellet containing the receptor-coated beads was resolved in 50 μl of TKE. […] All binding assays were performed in 96 well plates and the amount of bound ligand measured on a Packard TopCount using OptiPlates (Packard). Nonspecific binding was determined in the presence of 10^−4 M unlabelled compound. […]
On the technique in general: Scintillation proximity formats need no separation of bound from free tracer.

A further experiment concerns the target T2, PPARγ (Mus musculus, UniProt P37238).
T2 construct: PPARγ (aa 174 to 476); made in house; host or cells: E. coli BL21(pLysS)
T2 sequence (P37238 174-475 isoform P37238-2): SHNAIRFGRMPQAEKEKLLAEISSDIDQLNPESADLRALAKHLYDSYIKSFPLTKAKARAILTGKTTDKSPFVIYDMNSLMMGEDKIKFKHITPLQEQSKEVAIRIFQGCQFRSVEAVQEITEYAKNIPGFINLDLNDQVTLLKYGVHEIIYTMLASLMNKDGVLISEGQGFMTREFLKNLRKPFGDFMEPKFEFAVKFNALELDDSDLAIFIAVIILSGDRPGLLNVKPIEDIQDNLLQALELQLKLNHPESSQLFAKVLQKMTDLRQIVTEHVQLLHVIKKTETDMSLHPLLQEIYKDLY
Kind of experiment: Radioligand binding assay (SPA), PPARγ receptor binding. As to conditions: GST-PPARγ-LBD fusion protein, scintillation proximity counting.
From the text: as §1, §2, §3
as §4, with “PPARγ” for “PPARα”, “GST-PPARγ-LBD” for “GST-PPARα-LBD”, “ul” for “μl”

The target of a further experiment is T3, PPARδ (Homo sapiens, UniProt Q03181).
T3 construct: PPARδ (aa 139 to 442); made in house; host or cells: E. coli BL21(pLysS)
T3 sequence (Q03181 139-441 limits assumed): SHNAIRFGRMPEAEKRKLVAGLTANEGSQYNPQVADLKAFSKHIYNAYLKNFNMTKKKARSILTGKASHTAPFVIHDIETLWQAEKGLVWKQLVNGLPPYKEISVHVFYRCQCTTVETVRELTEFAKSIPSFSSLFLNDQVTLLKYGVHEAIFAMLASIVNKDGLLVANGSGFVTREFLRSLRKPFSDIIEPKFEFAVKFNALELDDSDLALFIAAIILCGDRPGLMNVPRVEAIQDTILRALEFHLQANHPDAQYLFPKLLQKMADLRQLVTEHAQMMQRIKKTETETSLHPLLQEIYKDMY
The experiment can be described thus: Radioligand binding assay (SPA), PPARδ receptor binding. Particulars: GST-PPARδ-LBD fusion protein, scintillation proximity counting.
From the text: as §1, §2, §3
PPARδ receptor binding was assayed in HNM10 (50 mM Hepes, pH 7.4, 10 mM NaCl, 5 mM MgCl2, 0.15 mg/ml fatty acid-free BSA and 15 mM DTT). For each 96 well reaction a 500 ng equivalent of GST-PPARδ-LBD fusion protein and radioligand, e.g. 20000 dpm {2-methyl-4-[4-methyl-2-(4-trifluoromethyl-phenyl)-thiazol-5-yl-ditritiomethylsulfanyl]-phenoxy}-acetic acid, was bound to 10 μg SPA beads (PharmaciaAmersham) in a final volume of 50 μl by shaking. The resulting slurry was incubated for 1 h at RT and centrifuged for 2 min at 1300 g. […] Radioligand was added and the reaction incubated at RT for 1 h and scintillation proximity counting performed in the presence of test compounds was determined. All binding assays were performed in 96 well plates and the amount of bound ligand was measured on a Packard TopCount using OptiPlates (Packard). […]

For the compound `Cc1nc(-c2ccc(C(F)(F)F)cc2)ncc1COc1ccc2c(ccn2CC(=O)O)c1` [Example 2, {5-[4-Methyl-2-(4-trifluoromethyl-phenyl)-pyrimidin-5-ylmethoxy]-indol-1-yl}-acetic acid], the pIC50 on PPARα was 5.88; at PPARγ, < 5.00; on PPARδ, 7.08.
On the same counts, the results for `Cc1nc(-c2ccc(C(F)(F)F)cc2)ccc1COc1ccc2c(c1)N(CC(=O)O)CC2` [Example 6, {6-[2-Methyl-6-(4-trifluoromethyl-phenyl)-pyridin-3-ylmethoxy]-2,3-dihydro-indol-1-yl}-acetic acid] are 5.80, < 5.00 and 7.77.
Regarding `O=C(O)Cn1ccc2ccc(OCc3cnc(-c4ccc(C(F)(F)F)cc4)nc3C3CC3)cc21` [Example 7, {6-[4-Cyclopropyl-2-(4-trifluoromethyl-phenyl)-pyrimidin-5-ylmethoxy]-indol-1-yl}-acetic acid], the pIC50 at PPARα is 6.68; on PPARγ it was < 5.00; on PPARδ it was 9.00.
